The test system of data set [1] is human red blood cells (hRBC). The experiment in a line: Hemolysis. The format is cell-based. Conditions: 100.
The test system of the next data set is P. aeruginosa ATCC 27853. In kind it is cell-based, Pseudomonas aeruginosa. As to conditions: ATCC 27853. Put shortly: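 Peptide activity was measured by a modified NCCLS broth microdilution method in Mueller-Hinton broth with 0.02% BSA. An inoculum adjusted against a 0.5 McFarland standard to about 10^6 CFU/ml was mixed 1:1 with two-fold serial peptide dilutions.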

The subject of data set [2] is Pseudomonas aeruginosa (ATCC 27853). The data set is described as follows: In vivo septicemia assay. Set-up: species or system CD-1 mice. As to conditions: groups of 6 mice. The procedure:
Groups of 6 CD-1 (Crl.) derived male mice weighing 24±2 g were used. The mice were each inoculated intravenously (IV) with an LD90-100 of Pseudomonas aeruginosa (ATCC 27853) (9×10^6 CFU/0.5 ml/mouse) in brain heart infusion broth without 5% mucin. Compound at doses of 5, 2.5, 1, 0.5, 0.25 and 0.1 mg/kg, vehicle (0.9% NaCl, 10 ml/kg) was administered subcutaneously (SC) to test animals at 1 hour after bacterial inoculation. Also, an additional group was treated twice with compound at a dose of 5 mg/kg at 1 and 6 hours after bacterial inoculation. Mortality was recorded once daily for 7 days following the bacterial inoculation and an increase of survival of the animals by 50 percent or more (^3 50%) after the bacterial inoculation, relative to vehicle control, indicates significant antimicrobial effect. The MED (ED50) was determined by nonlinear regression using Graph-Pad Prism (Graph Pad Software, USA).
Septicaemia experiment in mice: LD90-100 of Pseudomonas aeruginosa (ATCC 27853) (9×10^6 CFU/0.5 ml/mouse IV and after 1 h Ex. 1 s.c.
Septicaemia experiment in mice: LD90-100 of Pseudomonas aeruginosa (ATCC 27853) (9×10^6 CFU/0.5 ml/mouse IV), and after 1 and 5 h Ex. 40 s.c.
Septicaemia experiment in mice: LD90-100 of Pseudomonas aeruginosa (ATCC 27853) (9×10^6 CFU/0.5 ml/mouse IV), and after 1 and 5 h Ex. 50 s.c.

[3] abbreviates: 0.1 mg/kg, 1 h after inoculation.
Setting [4] is: 0.25 mg/kg, 1 h after inoculation.
The mark [5] stands for this setting: 0.5 mg/kg, 1 h after inoculation.
Where [6] appears, read: 2.5 mg/kg, 1 h after inoculation.

Converted amounts (≈) assume the structure as drawn. Non-standard residues stand in square brackets, D forms with d. Residues, ends and D or L forms follow the SMILES beside them. Dab = NCC[C@H](N)C(=O)O

As to `CC[C@H](C)[C@@H]1NC(=O)[C@H](Cc2c[nH]c3ccccc23)NC(=O)[C@H]([C@@H](C)O)NC(=O)[C@@H]2CCCN2C(=O)[C@H]2CCCN2C(=O)[C@H](CCN)NC(=O)[C@H](C)NC(=O)[C@H](CCN)NC(=O)[C@H](CCN)NC(=O)[C@H](Cc2c[nH]c3ccccc23)NC(=O)[C@H](CCN)NC(=O)[C@H](CCN)NC(=O)[C@H](CCCCN)NC(=O)[C@H](CCN)NC1=O` [Example 1] (cyclo(TWI[Dab]K[Dab][Dab]W[Dab][Dab]A[Dab][dP]P)), the “Hemolysis at 100 μg/ml” value in data set [1] worked out at 0.5%. The “MIC P. aeruginosa ATCC 27853” value against P. aeruginosa ATCC 27853 was found to be 0.03 µg/mL (≈ 0.019 µM). Also, the Dead in data set [2] (setting [3]) worked out at 5; in data set [2] (setting [4]) it was 5; in data set [2] (setting [5]), 2; in data set [2] (1 mg/kg, 1 h after inoculation) it was 1; in data set [2] (setting [6]), 0; in data set [2] (5 mg/kg, 1 h after inoculation), 0. The compound also showed a Dead in data set [2] (10 (2 × 5) mg/kg, 7 days) of 0. Also, the Survivors in data set [2] (setting [3]) was determined as 1; in data set [2] (setting [4]) it was 1; in data set [2] (setting [5]), 4; in data set [2] (1 mg/kg, 1 h after inoculation) it was 5; in data set [2] (setting [6]) it was 6; in data set [2] (5 mg/kg, 1 h after inoculation), 6. This compound also came in with a Survivors in data set [2] (10 (2 × 5) mg/kg, 7 days) of 6.

For the origin of these results see patent US9521846B2, “Template-fixed peptidomimetics with antimicrobial activity” (priority 2006, dated 2016).
